Assay results as given in US12441732B2, “Potassium salt crystal form B of phosphodiesterase type 5 inhibitor, and preparation method and use therefor” (Guangzhou Huazhen Pharmaceutical Co., Ltd, priority 2019, dated 2025).

How the values were obtained:
[1] = tested on: rats with isoproterenol-induced myocardial hypertrophy; assay: Isoproterenol-induced myocardial hypertrophy in rats; type: in vivo, SD rats; details: Iso rats, 2 mg·kg^−1·d^−1 gavage, 7 days
Method: SD rats were randomly divided into 3 groups, 10 rats/group: a normal control group (CON); an isoproterenol-induced myocardial hypertrophy model group (Iso); an Iso+the potassium salt crystal form B of WYQ treatment group (hereafter referred to as a treatment group).
Isoproterenol was prepared into a 4 mg/ml medicinal solution with double-distilled water, which was ready to be used. The normal control group was injected with normal saline (5 mg/kg) subperitoneally, and the rest of the groups were injected with isoproterenol (5 mg/kg) subperitoneally once a day for 7 consecutive days.
Treatment group: the potassium salt crystal form B of WYQ was prepared into a 0.4 mg/ml medicinal solution with normal saline (ready to use) and administered by gavage at a dose of 2 mg·kg^−1·d^−1; and
the day of injection was the starting date of the experiment, and the administration was started 2 hours after the modeling, once a day for 7 consecutive days.
After 7 days from the starting date of the experiment, the left ventricle was intubated retrogradely through the right common carotid artery, and the hemodynamic indexes of each group of rats were collected on the RM-6240E polygraph, including the left ventricular pressure (LVP) and the rate of ventricular pressure change (dp/dt).
One week after the starting date of the experiment, the animals were anesthetized and hemodynamically tested (RM-6240E polygraph). The animals were sacrificed after pressure measurement. The heart tissues were immediately dissected and rinsed in frozen normal saline to remove blood. The heart was weighed quickly, and the left and right atria are cut along the atrio-ventricular junction with ophthalmic scissors. The left ventricle was separated, and absorbed water with filter paper, weighed, and put into liquid nitrogen for extraction of protein and mRNA to detect changes in the expression of hypertrophy-related factor genes. After 2 hours, the left ventricle tissue was transferred to a refrigerator at −80° C. for freezing and storage. After completing the above operations, the leg skin and muscles of the rats were cut with surgical scissors to fully expose the tibia, and the length of the tibia was measured. The myocardial hypertrophy index of rats was expressed by a heart-tibia length (HW-Tibia).

UUO model mice = assay: Unilateral ureteral obstruction mouse model (UUO model) of renal fibrosis; type: in vivo, C57BL/6 mice; details: 5 mg·kg^−1·d^−1 gavage, 7 days
Description: Fifteen male C57BL/6 mice were adaptively fed for one week and randomly divided into two groups: a Sham group (a sham-operation group) including 5 mice and a surgical modeling group including 10 mice. Surgical method: the abdominal cavities of the mice in the sham-operation group were opened under anesthesia to free the left ureter without ligation, and then their abdomens were closed and sutured; the left ureters of the mice in the modeling group were ligated under anesthesia. The mice in the modeling group were further randomly divided into two groups: a UUO group (a model group) and a treatment group of the potassium salt crystal form B of WYQ (5 mg/kg), 5 mice in each group.
(§1) The first gavage administration was started 2 hours after the operation.
(§2) (2) treatment group of the potassium salt crystal form B of WYQ: the potassium salt crystal form B of WYQ was diluted into a 1 mg/ml solution with normal saline and administered by gavage at the dose of 5 mg·kg^−1·d^−1; and
administered once a day for consecutive 7 days.
After 7 days of drug administration, all the mice were sacrificed. The abdominal cavity was opened and the left and right kidney tissues were peeled off, caring to maintain the integrity of the kidneys. The kidneys were taken out and quickly transferred to pre-cooled PBS, and the kidneys were cut for different assays. The kidney was divided into four parts with a scalpel, and the dorsal side of the kidney was fixed in 4% paraformaldehyde for making paraffin sections. Morphological changes of kidney tissues were observed by HE staining and Masson staining, and changes of expression of fibrosis marker proteins in kidney tissues were observed by immunohistochemistry.

PAH rats = assay: Penile erectile function observation in PAH rats; type: in vivo, SD rats
Method: After gavage treatment, penile erection in the animals was observed, wherein the time of penile erection phenomenon after gavage was recorded in each group.

UIRI model mice = assay: Unilateral renal ischemia-reperfusion mouse model (UIRI model) of renal fibrosis; type: in vivo, BALB/c mice; details: 5 mg·kg^−1·d^−1 gavage, 10 days
Description: Fifteen male BALB/c mice were randomly divided into: a Sham group (a sham-operation group) including 5 mice, and a surgical modeling group including 10 mice. Surgical method: mice were anesthetized and incised on the left side of the abdomen to expose the kidney, and the renal pedicle was bluntly dissected. In the sham-operation group, the renal pedicle was only exposed without clamping; in the modeling group, the left kidney renal pedicle was clamped with a non-invasive miniature arterial clamp for 30 min, and the mice were placed on a thermostat plate at 37° C. to maintain a constant body temperature during the clamping period, and the surgical incision was covered with saline-impregnated gauze to prevent dehydration of the renal tissue. The arterial clamp was removed after 30 min, and it was observed that the kidney changed gradually from purple-black to bright red within 1 min, indicating successful blood reperfusion. The kidney was returned to its original position and the wound was sutured. The mice in the modeling group were randomly divided into 2 groups: a UIRI group (a model group) and a treatment group of the potassium salt crystal form B of WYQ (5 mg/kg), 5 mice in each group.
as §1, §2
administered once a day for consecutive 10 days.
On the 10th after operation, mice were anesthetized in the same way, the right dorsum was incised to expose the right kidney, and the renal pedicle was ligated before removing the right kidney. The mice in the sham-operation group were only stripped of the perirenal membrane without removing the right kidney. On the 11th after operation, all the mice were sacrificed, the abdominal cavity was opened, and the left kidney tissues of the mice were peeled off, caring to maintain the integrity of the kidney. After the kidney is taken out, the kidney is quickly transferred to pre-chilled PBS, and the kidney is cut for different tests. The kidney is divided into four parts with a scalpel, wherein the upper and lower ventral poles of the kidney were put into liquid nitrogen for extraction of protein and mRNA, and detection of changes in the expression amount of fibrosis-related factors proteins and genes. After 2 hours, the kidney tissue was transferred and stored in the refrigerator at −80° C. The dorsal side of the kidney was fixed in 4% paraformaldehyde for making paraffin sections. The morphological changes of the kidney tissue were observed by HE staining and Masson staining, and the changes of the expression of fibrosis marker proteins in the kidney tissues were observed by immunohistochemistry.

SMILES: CCCCOC(=O)[N-]S(=O)(=O)c1cccc(-c2nc3c(CCC)nn(C)c3c(=O)[nH]2)c1.[K+] [potassium salt crystal form B]
- BNP gene expression in heart tissue vs model group [1]: significantly decreased
- HW-Tibia ratio vs model group [1]: significantly reduced
- Max dp/dt vs model group [1]: significantly higher
- Min dp/dt vs model group [1]: significantly higher
- expression of ANP gene in left heart tissue vs model group [1]: significantly decreased
- expression of ANP protein in left heart tissue vs model group [1]: significantly decreased
- left ventricle-tibia length ratio vs model group [1]: significantly reduced
- left ventricular pressure (LVP) vs model group [1]: significantly higher
- FN1 protein expression level in kidney tissue (immunohistochemistry) (UUO model mice): significantly reduced
- fibrosis area in the renal fibrosis lesions vs UUO model group (UUO model mice): significantly decrease
- proliferation of renal interstitial collagen fibers (UUO model mice): reduced
- inflammatory cell infiltration in the kidney (UUO model mice; HE staining): significantly reduced
- rats showing penile erection (PAH rats; high-dose 20 mg·kg^−1d^−1, over 40 min after gavage): 80%
- rats showing penile erection (PAH rats; low-dose 5 mg·kg^−1d^−1, over 1 h after gavage): 50%
- rats showing penile erection (PAH rats; medium-dose 10 mg·kg^−1d^−1, over 1 h after gavage): 80%
- rats showing penile erection (PAH rats; mini-dose 2 mg·kg^−1d^−1, over 1 h after gavage): 30%
- Collagen I protein expression in kidney tissue (Western Blot) vs UIRI model (UIRI model mice): significantly reduced
- FN1 protein expression in kidney tissue (Western Blot) vs UIRI model (UIRI model mice): significantly reduced
- FN1 protein expression level in renal fibrotic lesions (immunohistochemistry) (UIRI model mice): significantly reduced
- PAI-1 protein expression in kidney tissue (Western Blot) vs UIRI model (UIRI model mice): significantly reduced
- α-SMA protein expression in kidney tissue (Western Blot) vs UIRI model (UIRI model mice): significantly reduced
- α-SMA protein expression level in renal fibrotic lesions (immunohistochemistry) (UIRI model mice): significantly reduced
- extracellular matrix deposition in the kidneys (UIRI model mice; HE/Masson staining): decreased
- inflammatory cell infiltration in the kidneys (UIRI model mice; HE/Masson staining): significantly reduced
